Data: PubChem BioAssay (NCI)
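Cultured in 96-well plates, cells were exposed to test compound for 48 hours across five concentrations. At the TGI there is no net growth.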

What was measured:
Assay in all cases: inhibition of tumour cell growth, NCI panel, 48 h
786-0 renal = test system: 786-0 renal
A498 renal = test system: A498 renal
A549 NSCLC = test system: A549 NSCLC
ACHN renal = test system: ACHN renal
BT-549 breast = test system: BT-549 breast
CAKI-1 renal = test system: CAKI-1 renal
CCRF-CEM leukemia = test system: CCRF-CEM leukemia
COLO 205 colon = test system: COLO 205 colon
DU-145 prostate = test system: DU-145 prostate
EKVX NSCLC = test system: EKVX NSCLC
HCC-2998 colon = test system: HCC-2998 colon
HCT-116 colon = test system: HCT-116 colon
HCT-15 colon = test system: HCT-15 colon
HL-60(TB) leukemia = test system: HL-60(TB) leukemia
HOP-62 NSCLC = test system: HOP-62 NSCLC
HOP-92 NSCLC = test system: HOP-92 NSCLC
HS 578T breast = test system: HS 578T breast
HT29 colon = test system: HT29 colon
IGROV1 ovarian = test system: IGROV1 ovarian
K-562 leukemia = test system: K-562 leukemia
KM12 colon = test system: KM12 colon
LOX IMVI melanoma = test system: LOX IMVI melanoma
M14 melanoma = test system: M14 melanoma
MCF7 breast = test system: MCF7 breast
MDA-MB-231 breast = test system: MDA-MB-231 breast
MDA-MB-435 = test system: MDA-MB-435
MDA-N = test system: MDA-N
MOLT-4 leukemia = test system: MOLT-4 leukemia
NCI-H226 lung = test system: NCI-H226 lung
NCI-H23 lung = test system: NCI-H23 lung
NCI-H460 lung = test system: NCI-H460 lung
NCI/ADR-RES ovarian = test system: NCI/ADR-RES ovarian
OVCAR-3 ovarian = test system: OVCAR-3 ovarian
OVCAR-4 ovarian = test system: OVCAR-4 ovarian
OVCAR-5 ovarian = test system: OVCAR-5 ovarian
OVCAR-8 ovarian = test system: OVCAR-8 ovarian
PC-3 prostate = test system: PC-3 prostate
RPMI-8226 leukemia = test system: RPMI-8226 leukemia
RXF 393 renal = test system: RXF 393 renal
SF-268 CNS = test system: SF-268 CNS
SF-295 CNS = test system: SF-295 CNS
SF-539 CNS = test system: SF-539 CNS
SK-MEL-2 melanoma = test system: SK-MEL-2 melanoma
SK-MEL-5 melanoma = test system: SK-MEL-5 melanoma
SK-OV-3 ovarian = test system: SK-OV-3 ovarian
SN12C renal = test system: SN12C renal
SNB-19 CNS = test system: SNB-19 CNS
SNB-75 CNS = test system: SNB-75 CNS
SR leukemia = test system: SR leukemia
SW-620 colon = test system: SW-620 colon
T-47D breast = test system: T-47D breast
TK-10 renal = test system: TK-10 renal
U251 CNS = test system: U251 CNS
UACC-257 melanoma = test system: UACC-257 melanoma
UACC-62 melanoma = test system: UACC-62 melanoma
UO-31 renal = test system: UO-31 renal
MALME-3M melanoma = test system: MALME-3M melanoma
SK-MEL-28 melanoma = test system: SK-MEL-28 melanoma

`CCOC(=O)C(Cc1ccc(N(CCCl)CCCl)cc1)NC(=O)C(Cc1ccccc1)NC(C)=O` (configuration not stated) gave a TGI (786-0 renal) of over 0.399 µM, a TGI (A498 renal) of over 0.414 µM and a TGI (A549 NSCLC) of over 1 µM. For the same compound, the TGI (ACHN renal) was 309 nM, the TGI (BT-549 breast) was over 0.798 µM and the TGI (CAKI-1 renal) was 419 nM. It also gave a TGI (CCRF-CEM leukemia) of 213 nM, a TGI (COLO 205 colon) of over 0.321 µM and a TGI (DU-145 prostate) of over 1 µM. It also gave a TGI (EKVX NSCLC) of over 0.538 µM, a TGI (HCC-2998 colon) of over 1000 nM and a TGI (HCT-116 colon) of over 0.388 µM. For the same compound, the TGI (HCT-15 colon) was over 1 µM, the TGI (HL-60(TB) leukemia) was over 264 nM and the TGI (HOP-62 NSCLC) was over 0.431 µM. For the same compound, the TGI (HOP-92 NSCLC) was over 1 µM, the TGI (HS 578T breast) was over 1 µM and the TGI (HT29 colon) was over 0.219 µM. For the same compound, the TGI (IGROV1 ovarian) was over 0.308 µM, the TGI (K-562 leukemia) was over 0.502 µM and the TGI (KM12 colon) was over 0.565 µM. For the same compound, the TGI (LOX IMVI melanoma) was over 0.386 µM, the TGI (M14 melanoma) was over 0.318 µM and the TGI (MCF7 breast) was 496 nM. The TGI (MDA-MB-231 breast) was over 0.366 µM, the TGI (MDA-MB-435) was over 1 µM and the TGI (MDA-N) was over 0.371 µM. The TGI (MOLT-4 leukemia) was 201 nM, the TGI (NCI-H226 lung) was over 1 µM and the TGI (NCI-H23 lung) was over 0.304 µM. For the same compound, the TGI (NCI-H460 lung) was over 0.553 µM, the TGI (NCI/ADR-RES ovarian) was over 0.618 µM and the TGI (OVCAR-3 ovarian) was 361 nM. The TGI (OVCAR-4 ovarian) was 35.3 nM, the TGI (OVCAR-5 ovarian) was over 0.435 µM and the TGI (OVCAR-8 ovarian) was over 1 µM. The TGI (PC-3 prostate) was over 0.374 µM, the TGI (RPMI-8226 leukemia) was 211 nM and the TGI (RXF 393 renal) was 259 nM. The TGI (SF-268 CNS) was over 0.288 µM, the TGI (SF-295 CNS) was over 0.501 µM and the TGI (SF-539 CNS) was over 0.294 µM. For the same compound, the TGI (SK-MEL-2 melanoma) was over 0.36 µM, the TGI (SK-MEL-5 melanoma) was over 0.486 µM and the TGI (SK-OV-3 ovarian) was over 0.44 µM. It also gave a TGI (SN12C renal) of over 0.296 µM, a TGI (SNB-19 CNS) of over 0.578 µM and a TGI (SNB-75 CNS) of over 1 µM. The TGI (SR leukemia) was over 1 µM, the TGI (SW-620 colon) was over 1 µM and the TGI (T-47D breast) was over 0.928 µM. For the same compound, the TGI (TK-10 renal) was over 0.325 µM, the TGI (U251 CNS) was over 0.787 µM and the TGI (UACC-257 melanoma) was over 0.486 µM. The TGI (UACC-62 melanoma) was over 0.277 µM and the TGI (UO-31 renal) was over 0.328 µM.
Work on `C=C[C@]1(O[Si](C)(C)C)C[C@@]2(C(=O)OCC)C(O)C(=O)N3CCc4cc(OC)c(OC)cc4[C@]312` (some centres not stated) yielded a TGI (786-0 renal) of over 100 µM, a TGI (A498 renal) of over 100 µM and a TGI (A549 NSCLC) of over 100 µM. It also gave a TGI (ACHN renal) of over 100000 nM, a TGI (BT-549 breast) of over 100 µM and a TGI (CAKI-1 renal) of over 100000 nM. For the same compound, the TGI (CCRF-CEM leukemia) was over 100000 nM, the TGI (COLO 205 colon) was over 100 µM and the TGI (DU-145 prostate) was over 100 µM. For the same compound, the TGI (EKVX NSCLC) was over 100 µM, the TGI (HCT-116 colon) was over 100 µM and the TGI (HCT-15 colon) was over 100 µM. It also gave a TGI (HOP-62 NSCLC) of over 100 µM, a TGI (HOP-92 NSCLC) of over 100 µM and a TGI (HS 578T breast) of over 100 µM. For the same compound, the TGI (HT29 colon) was over 100 µM, the TGI (IGROV1 ovarian) was over 100 µM and the TGI (K-562 leukemia) was over 100 µM. The TGI (KM12 colon) was over 100 µM, the TGI (LOX IMVI melanoma) was over 100 µM and the TGI (M14 melanoma) was over 100 µM. The TGI (MALME-3M melanoma) was over 100 µM, the TGI (MCF7 breast) was over 100000 nM and the TGI (MDA-MB-231 breast) was over 100 µM. It also gave a TGI (MDA-MB-435) of over 100 µM, a TGI (MDA-N) of over 100 µM and a TGI (MOLT-4 leukemia) of over 100000 nM. For the same compound, the TGI (NCI-H226 lung) was over 100 µM, the TGI (NCI-H23 lung) was over 100 µM and the TGI (NCI-H460 lung) was over 100 µM. For the same compound, the TGI (NCI/ADR-RES ovarian) was over 100 µM, the TGI (OVCAR-3 ovarian) was over 100000 nM and the TGI (OVCAR-4 ovarian) was over 100000 nM. The TGI (OVCAR-5 ovarian) was over 100 µM, the TGI (OVCAR-8 ovarian) was over 100 µM and the TGI (PC-3 prostate) was over 100 µM. The TGI (RPMI-8226 leukemia) was over 100000 nM, the TGI (RXF 393 renal) was over 100000 nM and the TGI (SF-268 CNS) was over 100 µM. The TGI (SF-295 CNS) was over 100 µM, the TGI (SF-539 CNS) was over 100 µM and the TGI (SK-MEL-2 melanoma) was over 100 µM. It also gave a TGI (SK-MEL-28 melanoma) of over 100 µM, a TGI (SK-MEL-5 melanoma) of over 100 µM and a TGI (SK-OV-3 ovarian) of over 100 µM. The TGI (SN12C renal) was over 100 µM, the TGI (SNB-19 CNS) was over 100 µM and the TGI (SNB-75 CNS) was over 100 µM. For the same compound, the TGI (SR leukemia) was over 100 µM, the TGI (SW-620 colon) was over 100 µM and the TGI (T-47D breast) was over 100 µM. The TGI (TK-10 renal) was over 100 µM, the TGI (U251 CNS) was over 100 µM and the TGI (UACC-257 melanoma) was over 100 µM. For the same compound, the TGI (UACC-62 melanoma) was over 100 µM and the TGI (UO-31 renal) was over 100 µM.
